Laboratory results reported in ChEMBL document CHEMBL5375943, “The Importance of Tracking "Missing" Metabolites: How and Why?” (J Med Chem, 2023).
One block for each compound: values may come before it.

Key:
Cytochrome P450 3A4 = Cytochrome P450 3A4 (Homo sapiens, UniProt P08684); experiment: Inhibition of CYP3A4 in human liver microsome; assay type: ADME, microsomes
[1] = Clearance in Wistar rat at 3 mg/kg, iv incubated for 24 hrs by LC-MS/MS analysis; assay type: ADME, organism-based; details: in vivo
[2] = AUC (0 to t) in Sprague-Dawley rat at 10 mg/kg, po; assay type: ADME, organism-based; set-up: dose 10 mg/kg, route po; details: in vivo
[3] = Oral bioavailability in ICR mouse plasma at 5 mg/kg by LC-MS/MS analysis; assay type: ADME, organism-based
[4] = Elimination half life in human liver microsomes; assay type: ADME, Microsome; details: read-out: beta t1/2 (converted)
[5] = Stability in human plasma assessed as compound remaining incubated for 10 mins relative to control; assay type: ADME, cell-free; details: read-out: Stability
[6] = Elimination half life in human; assay type: ADME; details: read-out: beta t1/2
[7] = Metabolic stability in human plasma assessed as half life

Cytochrome P450 3A4, sequence (P08684 whole entry): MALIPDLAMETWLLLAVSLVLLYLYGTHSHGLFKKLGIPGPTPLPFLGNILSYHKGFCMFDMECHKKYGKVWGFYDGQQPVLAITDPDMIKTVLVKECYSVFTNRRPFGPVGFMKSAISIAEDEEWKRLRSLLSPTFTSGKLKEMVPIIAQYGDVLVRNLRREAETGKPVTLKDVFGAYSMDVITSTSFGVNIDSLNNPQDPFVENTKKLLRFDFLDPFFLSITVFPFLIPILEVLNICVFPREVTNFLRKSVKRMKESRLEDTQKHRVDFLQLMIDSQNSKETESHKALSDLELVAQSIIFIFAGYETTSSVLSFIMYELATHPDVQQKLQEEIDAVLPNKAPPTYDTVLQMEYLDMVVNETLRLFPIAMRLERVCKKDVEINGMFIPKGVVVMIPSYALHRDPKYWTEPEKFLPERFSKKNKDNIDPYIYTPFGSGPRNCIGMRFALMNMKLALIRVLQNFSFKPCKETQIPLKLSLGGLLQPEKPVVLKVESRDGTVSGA

Structure (SMILES): CCc1cc(/C(C)=N/OCc2ccc(C3CCCCC3)c(C(F)(F)F)c2)ccc1CN1CC(C(=O)O[C@H]2CC[C@@]3(C)C(=CC[C@H]4[C@@H]5CC[C@H]([C@H](C)CCCC(C)C)[C@@]5(C)CC[C@@H]43)C2)C1
AUC(0-t) [2]: 0.19 µM·h | bioavailability [3]: 14.7% | half-life [4]: 155 h

Structure (SMILES): C[C@H](OS(=O)(=O)O)[C@H]1CC[C@H]2[C@@H]3CC[C@H]4CC(C(=O)O)=CC[C@]4(C)[C@H]3CC[C@]12C
bioavailability [3]: 20.4% | half-life [4]: 171 h

Structure (SMILES): COc1ccc2[nH]c([S+]([O-])Cc3ncc(C)c(OC)c3C)nc2c1 (stereo unspecified) [OMEPRAZOLE]
half-life [7]: 1 h

More lines, now with the values ahead:

IC50 (Cytochrome P450 3A4): 550 nM
Structure (SMILES): C[C@H](c1nc2ncccc2c(=O)n1-c1ccc(O)cc1)N(Cc1cccnc1)C(=O)Cc1ccc(OC(F)(F)F)cc1

clearance [1]: 0.4 mL/min/kg
Structure (SMILES): C[C@H](O)[C@H]1CC[C@H]2[C@@H]3CC[C@H]4CC(C(=O)O)=CC[C@]4(C)[C@H]3CC[C@]12C

remaining at 10 min [5]: 30%
Structure (SMILES): NCCOP(=O)(O)OC[C@@H](O)CNC(=O)c1ccncc1Nc1ccc(I)cc1F

IC50 (Cytochrome P450 3A4): 600 nM
Structure (SMILES): OC1CC(O)(CN2CCC(COc3noc4cccc(O[C@H]5CCOC5)c34)CC2)CCO1 (stereo partly specified)

half-life [6]: > 168 h
Structure (SMILES): COc1ccc(Cl)cc1[C@]1(F)C(=O)Nc2cc(C(F)(F)F)ccc21 [FLINDOKALNER]
